# Measured values reported in patent US9643982B2, “Fused tricyclic heterocyclic compounds as HIV integrase inhibitors” (Merck Sharp & Dohme Corp., priority 2013, dated 2017).
# pEC50: −log10 of the molar value. Like-named read-outs stand apart in the source and are kept apart here.
# System: HIV-1 (NL4-3 strain)
# Assay: Multiple round HIV-1 infection assay in MT4-GFP cells (Wild Type Cell Assay)
# Type: cell-based
# Settings: Human immunodeficiency virus 1, NL43, MT4-GFP cells infected with HIV-1 NL4-3, read-out: Wild Type Cell Assay IP
# Experimental: HIV-1 replication was monitored using MT4-gag-GFP clone D3 (hereafter designate MT4-GFP), which are MT-4 cells modified to harbor a GFP reporter gene, the expression of which is dependent on the HIV-1 expressed proteins tat and rev. Productive infection of an MT4-GFP cell with HIV-1 results in GFP expression approximately 24 h post-infection.
# MT4-GFP cells were maintained at 37° C./5% CO2/90% relative humidity in RPMI 1640 supplemented with 10% fetal bovine serum, 100 U/ml penicillin/streptomycin, and 400 μg/ml G418 to maintain the reporter gene. For infections, MT4-GFP cells were placed in the same medium lacking G418 and infected overnight with HIV-1 (NL4-3 strain) virus at an approximate multiplicity of infection of 0.01 in the same incubation conditions.
# Cells were then washed and resuspended in either RPMI 1640 supplemented with 10% normal human serum (NHS) or without NHS at 1.6×10^5 cells/mL (10% NHS or serum-free conditions) or in 100% normal human serum at 2×10^5 cells/mL (100% NHS conditions). Compound plates were prepared by dispensing compounds dissolved in DMSO into wells of 384 well poly D lysine-coated plates (0.2 μl/well) using an ECHO acoustic dispenser. Each compound was tested in a 10 point serial 3-fold dilution (typical final concentrations: 8.4 μM-0.42 nM). Controls included no inhibitor (DMSO only) and a combination of three antiviral agents (efavirenz, indinavir, and the integrase strand transfer inhibitor L-002254051 at final concentrations of 4 μM each). Cells were added (50 μL/well) to compound plates and the infected cells were maintained at 37° C./5% CO2/90% relative humidity.
Compound,pEC50 (0 % NHS (serum-free)),pEC50 (10 % NHS (normal human serum))
"CCN1C[C@@H]2C[C@@H](OC)c3c(C(=O)NCc4ccc(F)c(Cl)c4F)c(=O)c(O)c(n32)C1=O (single isomer, unassigned) [Compound 34]",8.54,
CN1CC2COCc3c(C(=O)NCc4ccc(F)cc4F)c(=O)c(O)c(n32)C1=O (racemic) [Compound 1],8.04,
CCN1CC2CC(OC)c3c(C(=O)NCc4ccc(F)cc4F)c(=O)c(O)c(n32)C1=O (racemic) [Compound 29],8.92,
"CC(C)N1C[C@@H]2COCc3c(-c4cnn(Cc5ccc(F)cc5F)c4)c(=O)c(O)c(n32)C1=O (single isomer, unassigned) [Compound 15]",6.63,
"COCCN1C[C@H]2C[C@H](OC)c3c(C(=O)NCc4ccc(F)cc4F)c(=O)c(O)c(n32)C1=O (single isomer, unassigned) [Compound 32]",8.64,
"CC(C)(O)CN1C[C@@H]2CCc3c(C(=O)NCc4ccc(F)c(F)c4F)c(=O)c(O)c(n32)C1=O (single isomer, unassigned) [Compound 23]",8.42,
"CO[C@@H]1C[C@H]2CN(CC3CC3)C(=O)c3c(O)c(=O)c(C(=O)NCc4ccc(F)cc4F)c1n32 (single isomer, unassigned) [Compound 33]",8.64,
COc1ccc(CN2CC3COCc4c(C(=O)NCc5ccc(F)cc5F)c(=O)c(O)c(n43)C2=O)cc1 (racemic) [Compound 8],7.64,
"COCCN1C(=O)c2c(O)c(=O)c(C(=O)NCc3ccc(F)cc3F)c3n2[C@H](CC3)[C@@H]1OC (single isomer, unassigned) [Compound 27]",8.64,
"CCN1CC2CC(C)c3c(C(=O)NCc4ccc(F)c(F)c4F)c(=O)c(O)c(n32)C1=O (single isomer, unassigned) [Compound 37]",8.96,
"CC(C)N1C[C@@H]2COCc3c(-c4nnc(Cc5ccc(F)cc5F)s4)c(=O)c(O)c(n32)C1=O (single isomer, unassigned) [Compound 13, 9-(5-(2,4-difluorobenzyl)-1,3,4-thiadiazol-2-yl)-7-hydroxy-5-isopropyl-3,3a,4,5-tetrahydro-1H-2-oxa-3a1,5-diazaphenalene-6,8-dione]",8.30,
"COCCN1CC2CC(C)c3c(C(=O)NCc4ccc(F)cc4F)c(=O)c(O)c(n32)C1=O (single isomer, unassigned) [Compound 36]",8.41,
CC(C)CN1CC2COCc3c(C(=O)NCc4ccc(F)cc4F)c(=O)c(O)c(n32)C1=O (racemic) [Compound 4],,7.68
"CCN1C[C@H]2C[C@@H](OC)c3c(C(=O)NCc4ccc(F)cc4F)c(=O)c(O)c(n32)C1=O (single isomer, unassigned) [Compound 31]",8.42,
CC(C)N1CC2COCc3c(C(=O)NCc4ccc(F)c(Cl)c4)c(=O)c(O)c(n32)C1=O (racemic) [Compound 10],,7.00
"CO[C@H](C)CN1C[C@H]2CCc3c(C(=O)NCc4ccc(F)cc4F)c(=O)c(O)c(n32)C1=O (single isomer, unassigned) [Compound 22]",8.55,
"CCO[C@@H]1C[C@H]2CN(CC)C(=O)c3c(O)c(=O)c(C(=O)NCc4ccc(F)cc4F)c1n32 (single isomer, unassigned) [Compound 38]",8.72,
"O=C(NCc1ccc(F)cc1F)c1c2n3c(c(O)c1=O)C(=O)N(CCC(F)(F)F)C[C@@H]3CC2 (single isomer, unassigned) [Compound 20]",8.42,
COCCN1CC2CCc3c(C(=O)NCc4c(F)cc(F)cc4OC)c(=O)c(O)c(n32)C1=O (racemic) [Compound 19],8.36,

Compound,pEC50 (0 % NHS (serum-free)),pEC50 (10 % NHS (normal human serum))
"CCN1C(=O)c2c(O)c(=O)c(C(=O)NCc3ccc(F)c(Cl)c3)c3n2[C@@H](CC3)[C@H]1OC (single isomer, unassigned) [Compound 26]",8.49,
COCCC(C)N1CC2COCc3c(C(=O)NCc4ccc(F)cc4F)c(=O)c(O)c(n32)C1=O (centres unmarked) [Compound 6],7.62,
CC(C)N1CC2COCc3c(C(=O)NCc4ccc(F)cc4F)c(=O)c(O)c(n32)C1=O (racemic) [Compound 2],,7.48
O=C(NCc1ccc(F)cc1F)c1c2n3c(c(O)c1=O)C(=O)N(Cc1cccnc1)CC3COC2 (racemic) [Compound 7],8.02,
"CC(C)N1C[C@@H]2COCc3c(C(=O)NCc4ccc(F)c(F)c4F)c(=O)c(O)c(n32)C1=O (single isomer, unassigned) [Compound 9]",,7.70
"CC(C)N1CC2C(=O)N(C)Cc3c(C(=O)NCc4ccc(F)cc4F)c(=O)c(O)c(n32)C1=O (racemic) [Compound 16, N-(2,4-difluorobenzyl)-9-hydroxy-2-isopropyl-5-methyl-1,4,8-trioxo-1,2,3,3a,4,5,6,8-octahydro-2,3a1,5-triazaphenalene-7-carboxamide]",7.77,
"O=C(NCc1ccc(F)c(F)c1F)c1c2n3c(c(O)c1=O)C(=O)N(CC1CC1)C[C@H]3CC2 (single isomer, unassigned) [Compound 21]",8.51,
"CCN1CC2CC(C)c3c(C(=O)NCc4ccc(F)cc4F)c(=O)c(O)c(n32)C1=O (single isomer, unassigned) [Compound 35, N-(2,4-difluorobenzyl)-2-ethyl-9-hydroxy-6-methyl-1,8-dioxo-2,3,3a,5,6,8-hexahydro-1H-pyrazino[2,1,6-cd]indolizine-7-carboxamide]",8.92,
"CCN1CC2CCc3c(C(=O)NCc4ccc(F)cc4F)c(=O)c(O)c(n32)C1=O (racemic) [Compound 18, N-(2,4-difluorobenzyl)-2-ethyl-8-hydroxy-1,7-dioxo-2,3,3a,4,5,7-hexahydro-1H-pyrazino[2,1,6-cd]indolizine-6-carboxamide]",8.59,
CCN1C(=O)c2c(O)c(=O)c(C(=O)NCc3ccc(F)cc3F)c3n2C(CC3)C1OC (racemic) [Compound 25],8.72,
CC(C)N1CC2COCc3c(C(=O)NCc4ccc(F)c(Cl)c4F)c(=O)c(O)c(n32)C1=O (racemic) [Compound 12],,7.30
"CCN1CC2CC(O)c3c(C(=O)NCc4ccc(F)cc4F)c(=O)c(O)c(n32)C1=O (racemic) [Compound 24, N-(2,4-difluorobenzyl)-2-ethyl-5,8-dihydroxy-1,7-dioxo-2,3,3a,4,5,7-hexahydro-1H-pyrazino[2,1,6-cd]indolizine-6-carboxamide]",8.66,
"CNC(=O)c1c2n3c(c(O)c1=O)C(=O)N(Cc1ccc(F)cc1)CC3CC2 (racemic) [Compound 17, 2-(4-fluorobenzyl)-8-hydroxy-N-methyl-1,7-dioxo-2,3,3a,4,5,7-hexahydro-1H-pyrazino[2,1,6-cd]indolizine-6-carboxamide]",7.46,
"CC(C)N1C[C@@H]2COCc3c(C(=O)NCc4ccc(F)cc4F)c(=O)c(O)c(n32)C1=O (single isomer, unassigned) [Compound 3]",7.89,
CC(C)N1CC2COCc3c(-c4cnn(Cc5ccc(F)cc5F)c4)c(=O)c(O)c(n32)C1=O (racemic) [Compound 14],6.49,
"CCN1C[C@@H]2C[C@@H](OC)c3c(C(=O)NCc4ccc(F)cc4F)c(=O)c(O)c(n32)C1=O (single isomer, unassigned) [Compound 30]",9.00,
"CCO[C@H]1[C@H]2CCc3c(C(=O)NCc4ccc(F)cc4F)c(=O)c(O)c(n32)C(=O)N1CC (single isomer, unassigned) [Compound 28]",8.68,
Cc1c(F)ccc(CNC(=O)c2c3n4c(c(O)c2=O)C(=O)N(C(C)C)CC4COC3)c1F (racemic) [Compound 11],,6.94
COCCN1CC2COCc3c(C(=O)NCc4ccc(F)cc4F)c(=O)c(O)c(n32)C1=O (racemic) [Compound 5],8.04,
